Experimental findings from paper PMC6273138, “Inhibitory Effects of Aschantin on Cytochrome P450 and Uridine 5′-diphospho-glucuronosyltransferase Enzyme Activities in Human Liver Microsomes” (Molecules, 2016) are described below.

Read-outs that look alike come from different tables or passages of the source.

The IC50 is the point on the concentration scale where inhibition reaches its midpoint. One may read the kinact as the maximal first-order rate at which the target is inactivated.

Series [1] addresses T1, UGT1A9 (Homo sapiens, UniProt O60656).
T1 construct: using pooled human liver microsomes incubated with the cocktail of UGT substrates; tissue Corning Life Sciences 452161; host or cells: pooled human liver microsomes
T1 sequence (O60656 26-530): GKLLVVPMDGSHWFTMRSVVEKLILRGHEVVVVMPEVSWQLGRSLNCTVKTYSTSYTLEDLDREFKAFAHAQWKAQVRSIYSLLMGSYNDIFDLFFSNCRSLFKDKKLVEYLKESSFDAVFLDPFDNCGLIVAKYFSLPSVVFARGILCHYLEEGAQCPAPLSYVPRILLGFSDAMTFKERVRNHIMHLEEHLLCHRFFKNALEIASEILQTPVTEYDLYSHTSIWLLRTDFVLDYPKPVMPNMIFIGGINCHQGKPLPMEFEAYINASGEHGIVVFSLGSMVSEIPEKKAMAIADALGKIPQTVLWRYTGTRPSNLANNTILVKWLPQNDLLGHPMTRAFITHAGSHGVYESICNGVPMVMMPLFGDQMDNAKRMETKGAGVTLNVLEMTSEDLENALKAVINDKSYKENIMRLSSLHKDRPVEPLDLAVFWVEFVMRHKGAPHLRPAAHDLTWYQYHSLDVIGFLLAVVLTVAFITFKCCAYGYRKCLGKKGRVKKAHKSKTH
Description: UGT1A9-catalyzed mycophenolic acid glucuronidation inhibition in pooled human liver microsomes. Conditions: 0.2 µM mycophenolic acid. It counts as in vitro ADME. As for the experimental part: (§1) The extents of aschantin on UGT1A1, UGT1A3, UGT1A4, UGT1A6, UGT1A9, and UGT2B7 were evaluated by LC-MS/MS, using pooled human liver microsomes incubated with the cocktail of UGT substrates. The method was modified from that of Joo et al..
(§2) The metabolites formed from the six UGT cocktail substrates were simultaneously measured using the LC-MS/MS method. […] The mass spectrometer was equipped with an ESI source and was operated in both positive and negative ion modes. […] Each metabolite was quantified via SRM in the negative ion (chenodeoxycholic acid 24-acyl-β-glucuronide, 567.2 > 391.0; mycophenolic acid glucuronide, 495.2 > 318.9; propofol glucuronide, 353.3 > 177.1) and positive ion (SN-38 glucuronide, 569.0 > 393.0; trifluoperazine glucuronide, 584.2 > 408.1; N-acetylserotonin-β-D-glucuronide, 395.2 > 219.0; naloxone 3-β-D-glucuronide, 504.0 > 310.0; meloxicam, 352.0 > 115.1) modes.
In general terms: Liver microsomes are a subcellular fraction often used to study metabolism.

The target of series [2] is CYP2D6 (Homo sapiens, UniProt P10635). Nature of the series: CYP2D6-catalyzed bufuralol 1′-hydroxylase inhibition in pooled human liver microsomes.
CYP2D6, sequence (P10635 whole entry): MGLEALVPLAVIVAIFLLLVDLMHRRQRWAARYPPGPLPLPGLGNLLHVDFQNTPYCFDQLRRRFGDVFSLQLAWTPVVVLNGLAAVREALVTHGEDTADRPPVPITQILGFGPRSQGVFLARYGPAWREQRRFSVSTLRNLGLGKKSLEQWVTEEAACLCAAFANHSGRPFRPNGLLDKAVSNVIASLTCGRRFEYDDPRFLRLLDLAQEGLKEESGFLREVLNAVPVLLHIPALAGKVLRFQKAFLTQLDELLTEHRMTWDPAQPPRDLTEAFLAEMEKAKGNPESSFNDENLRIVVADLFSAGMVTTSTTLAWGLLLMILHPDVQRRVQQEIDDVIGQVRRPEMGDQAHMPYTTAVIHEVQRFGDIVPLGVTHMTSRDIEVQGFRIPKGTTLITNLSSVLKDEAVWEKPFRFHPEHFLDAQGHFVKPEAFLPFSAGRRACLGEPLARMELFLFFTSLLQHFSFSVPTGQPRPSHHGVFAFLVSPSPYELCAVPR
Description: (§3) The degrees of inhibition (the IC50 values) of aschantin toward CYP1A2, CYP2A6, CYP2C8, CYP2C9, CYP2C19, CYP2D6, and CYP3A4 were evaluated using pooled human liver microsomes employing a cocktail of CYP substrates and liquid chromatography-tandem mass spectrometry (LC-MS/MS). […] After 3 min pre-incubation at 37 °C, the reactions were initiated by addition of NADPH and incubation proceeded for 15 min at 37 °C in a shaking water bath. The reaction was stopped by placing the tubes on ice and adding 100 µL amounts of ice-cold methanol containing internal standards (^13C2,^15N-acetaminophen for acetaminophen and N-desethylamodiaquine; d9-1′-hydroxybufuralol for 4′-hydroxydiclofenac; and 7-hydroxycoumarin, 4′-hydroxy-mephenytoin, 1′-hydroxybufuralol, and 1′-hydroxymidazolam). Then the incubation mixtures were centrifuged at 13,000× g for 4 min at 4 °C. All assays were performed in triplicate and the average values were used in calculations.
(§4) To this end, we employed a tandem mass spectrometer (TSQ Quantum Access, Thermo Scientific, San Jose, CA, USA) coupled to a Nanospace SI-2 LC system (Shiseido, Tokyo, Japan). The column and autosampler temperatures were 50 °C and 6 °C, respectively. The mass spectrometer was equipped with an electrospray ionization (ESI) source and was operated in positive ion mode. The ESI source settings for metabolite ionization were as follows: capillary voltage, 4200 V; vaporizer temperature, 350 °C; capillary temperature 330 °C; sheath gas pressure, 35 psi; and auxiliary gas pressure, 15 psi. […] Analytical data were processed using Xcalibur® software (Thermo Scientific).
Series [3] concerns the target CYP2C9 (Homo sapiens, UniProt P11712). Nature of the series: CYP2C9-catalyzed diclofenac 4′-hydroxylase inhibition in pooled human liver microsomes. Conditions: for IC50: CYP2C9 diclofenac 4′-hydroxylase, 10 µM diclofenac.
Description: as §3, §4
(§5) The apparent kinetic inhibitory potentials (the Ki values) were estimated from the fitted curves using Enzyme Kinetics version 1.1 (Systat Software Inc.).
The target of series [4] is T2, UGT1A6 (Homo sapiens, UniProt P19224).
T2 construct: using pooled human liver microsomes incubated with the cocktail of UGT substrates; tissue Corning Life Sciences 452161; host or cells: pooled human liver microsomes
T2 sequence (P19224 27-532): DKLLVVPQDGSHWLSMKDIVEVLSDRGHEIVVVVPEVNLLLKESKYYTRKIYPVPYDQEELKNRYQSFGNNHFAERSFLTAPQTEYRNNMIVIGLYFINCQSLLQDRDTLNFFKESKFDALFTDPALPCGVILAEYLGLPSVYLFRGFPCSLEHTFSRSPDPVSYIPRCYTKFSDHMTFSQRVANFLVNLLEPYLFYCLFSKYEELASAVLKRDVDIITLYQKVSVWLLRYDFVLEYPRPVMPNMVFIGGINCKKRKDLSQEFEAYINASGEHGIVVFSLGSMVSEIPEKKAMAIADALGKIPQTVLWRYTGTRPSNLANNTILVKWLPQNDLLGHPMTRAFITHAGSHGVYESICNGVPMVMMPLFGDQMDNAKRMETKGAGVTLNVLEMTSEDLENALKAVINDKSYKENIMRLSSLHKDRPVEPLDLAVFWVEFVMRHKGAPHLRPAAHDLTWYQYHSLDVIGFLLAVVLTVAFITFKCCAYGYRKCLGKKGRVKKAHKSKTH
Description: UGT1A6-catalyzed N-acetylserotonin glucuronidation inhibition in pooled human liver microsomes. The format is in vitro ADME. To be noted: 1 µM N-acetylserotonin. On the procedure: as §1, §2

For series [5], the target named is CYP3A4 (Homo sapiens, UniProt P08684). Description: Mechanism-based (time- and concentration-dependent) inactivation of CYP3A4 in human liver microsomes. It counts as in vitro ADME. Conditions: CYP3A4-mediated midazolam 1′-hydroxylation. On the procedure:
The microsomes (1 mg/mL) were pre-incubated with various concentrations of aschantin in 50 mM potassium phosphate buffer (pH 7.4) in the presence of NADPH. Aliquots (10 µL) of the incubated mixtures were withdrawn at 5, 10, 15, and 20 min after incubation commenced and added to other tubes containing the CYP substrates (2 µM amodiaquine for CYP2C8, 10 µM diclofenac for CYP2C9, 100 µM [S]-mephenytoin for CYP2C19, or 2 µM midazolam for CYP3A4), 1 mM NADPH, 50 mM potassium phosphate buffer (pH 7.4), and 10 mM MgCl2, in 90 µL reaction mixtures. […] Aliquots (5 µL) of the diluted supernatants were analyzed by LC-MS/MS, as described above.

Series [6] has as its target T3, CYP2A6 (Homo sapiens, UniProt P11509).
T3 sequence (P11509 1-494): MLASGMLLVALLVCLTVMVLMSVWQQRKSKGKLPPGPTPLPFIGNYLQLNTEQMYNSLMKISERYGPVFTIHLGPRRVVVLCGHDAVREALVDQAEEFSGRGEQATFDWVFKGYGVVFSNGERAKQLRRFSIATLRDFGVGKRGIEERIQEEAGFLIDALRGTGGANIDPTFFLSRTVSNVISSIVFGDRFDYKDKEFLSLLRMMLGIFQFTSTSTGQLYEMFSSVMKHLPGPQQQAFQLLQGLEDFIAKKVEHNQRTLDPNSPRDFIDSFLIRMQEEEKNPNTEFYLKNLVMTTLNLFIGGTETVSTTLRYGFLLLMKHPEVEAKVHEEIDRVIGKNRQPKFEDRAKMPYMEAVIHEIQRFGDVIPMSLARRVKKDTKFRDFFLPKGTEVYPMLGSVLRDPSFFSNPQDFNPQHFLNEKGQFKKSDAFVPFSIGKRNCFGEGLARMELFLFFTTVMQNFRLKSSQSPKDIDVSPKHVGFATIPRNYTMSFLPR
Nature of the series: CYP2A6-catalyzed coumarin 7-hydroxylase inhibition in pooled human liver microsomes.
Description: as §3, §4, §5

[7] abbreviates: aschantin at 100 µM, human liver microsomes.

CYP2C9, sequence (P11712 whole entry): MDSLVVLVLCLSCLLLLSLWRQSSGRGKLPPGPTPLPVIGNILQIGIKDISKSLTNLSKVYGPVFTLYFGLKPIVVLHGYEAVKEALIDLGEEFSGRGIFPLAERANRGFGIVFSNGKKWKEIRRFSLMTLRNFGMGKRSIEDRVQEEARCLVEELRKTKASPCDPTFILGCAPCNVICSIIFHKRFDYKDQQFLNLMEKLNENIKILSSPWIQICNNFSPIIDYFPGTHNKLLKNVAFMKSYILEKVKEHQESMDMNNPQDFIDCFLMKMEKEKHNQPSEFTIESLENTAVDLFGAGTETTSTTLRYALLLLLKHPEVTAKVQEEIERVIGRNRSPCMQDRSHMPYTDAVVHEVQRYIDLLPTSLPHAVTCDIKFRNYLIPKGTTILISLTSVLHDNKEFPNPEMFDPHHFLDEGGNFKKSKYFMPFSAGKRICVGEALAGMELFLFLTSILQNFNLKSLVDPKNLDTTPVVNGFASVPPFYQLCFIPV
CYP3A4, sequence (P08684 2-503): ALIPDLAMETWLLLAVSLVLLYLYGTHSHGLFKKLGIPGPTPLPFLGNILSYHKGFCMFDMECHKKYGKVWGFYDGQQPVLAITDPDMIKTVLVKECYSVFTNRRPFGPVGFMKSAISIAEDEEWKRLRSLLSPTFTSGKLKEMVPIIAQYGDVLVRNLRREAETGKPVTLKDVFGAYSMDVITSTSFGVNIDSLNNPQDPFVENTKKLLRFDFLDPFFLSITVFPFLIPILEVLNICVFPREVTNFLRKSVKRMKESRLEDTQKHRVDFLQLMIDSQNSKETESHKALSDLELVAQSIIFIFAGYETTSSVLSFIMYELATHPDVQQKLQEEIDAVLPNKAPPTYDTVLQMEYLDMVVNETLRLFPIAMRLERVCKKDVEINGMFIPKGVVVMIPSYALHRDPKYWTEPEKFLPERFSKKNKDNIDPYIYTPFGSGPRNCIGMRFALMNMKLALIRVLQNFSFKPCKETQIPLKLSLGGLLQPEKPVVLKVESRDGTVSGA

In the case of `COc1cc([C@H]2OC[C@H]3[C@@H]2CO[C@@H]3c2ccc3c(c2)OCO3)cc(OC)c1OC` [Aschantin], the IC50 was 71 µM in series [1]; over 100 µM in series [2]; over 100 µM in series [2] (read-out: IC50 With Pre-incubation, CYP2D6 bufuralol 1′-hydroxylase, 5.0 µM bufuralol, 30 min pre-incubation with microsomes and NADPH); 40.5 µM in series [3] (IC50 No Pre-incubation, pooled human liver microsomes, no pre-incubation); 14.1 µM in series [3] (IC50 With Pre-incubation, 30 min pre-incubation with microsomes and NADPH); 144 µM in series [4]. For the same molecule, the IC50 is over 100 µM in series [6]; over 100 µM in series [6] (read-out: IC50 With Pre-incubation, CYP2A6 coumarin 7-hydroxylase, 2.5 µM coumarin, 30 min pre-incubation with microsomes and NADPH). Besides, the “inhibition of CYP2D6-mediated bufuralol 1′-hydroxylation” value in series [2] (setting [7]) was “negligibly inhibited”. Besides, in series [3] (human, pooled human liver microsomes, pH 7.4, probe diclofenac (10 µM), 4′-hydroxylation), the IC50 shift at 0.5 h was over 2.5. Moreover, the Ki in series [5] (read-out: Ki (apparent)) is 12.6 µM. The kinact in series [5] (pH 7.4, probe midazolam (2 µM)) is 0.00103 s⁻¹. In series [6] (setting [7]), the “inhibition of CYP2A6-mediated coumarin 7-hydroxylation” value is reported as “negligibly inhibited”.
